pKi: −log10 of the molar value.
Biological target: 5-hydroxytryptamine receptor 6 (Homo sapiens, UniProt P50406)
Test: Radioligand-Binding Assay
Conditions: pH 7.4; 37 °C
Method: In brief, receptor source and radioligand used were human recombinant expressed in HEK-293 cells and [3H] LSD (60-80 Ci/mmol), respectively. The final ligand concentration was 1.5 nM and non-specific determinant was methiothepin mesylate ([…]). The reference compound and positive control is methiothepin mesylate. Reactions were carried out in 50 mM Tris-HCl (pH 7.4) containing 10 mM MgCl2, 0.5 mM EDTA for 60 min at 37°C. The reaction was terminated by rapid vacuum filtration onto glass fibre filters.

Chain of 5-hydroxytryptamine receptor 6 (P50406 whole entry): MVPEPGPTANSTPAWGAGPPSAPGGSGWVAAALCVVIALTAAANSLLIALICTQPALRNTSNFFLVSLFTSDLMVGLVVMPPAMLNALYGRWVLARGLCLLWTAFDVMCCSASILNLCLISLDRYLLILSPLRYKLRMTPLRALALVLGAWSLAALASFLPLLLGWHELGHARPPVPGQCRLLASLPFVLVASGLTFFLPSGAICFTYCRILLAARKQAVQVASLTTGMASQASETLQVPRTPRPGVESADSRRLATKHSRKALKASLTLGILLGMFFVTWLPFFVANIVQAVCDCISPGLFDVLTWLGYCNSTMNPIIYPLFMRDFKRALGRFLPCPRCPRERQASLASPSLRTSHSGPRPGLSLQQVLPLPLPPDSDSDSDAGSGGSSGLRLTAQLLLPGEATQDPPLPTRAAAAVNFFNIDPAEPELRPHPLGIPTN

Compound	pKi
CN(C)CCC1=C2c3ccccc3CC2c2c1ccc1ccccc21 (stereo unspecified) [10-(2-N,N-dimethylaminoethyl)benzo[d]isoindolo[2,1-a]indole (28)]	7.03
CC(CC1=C2c3ccccc3S(=O)(=O)C2c2ccc(OCC3CCCCC3)cc21)N(C)C (stereo unspecified) [2-Cyclohexylmethyloxy-10-[(2-N,N-dimethylamino-2-methyl)ethyl]benzo[d] isothiazolo[3,2-a]indol-S,S-dioxide (20)]	< 6.00
CN(C)CCC1=C2c3ccccc3S(=O)(=O)C2c2ccc(F)cc21 (stereo unspecified) [10-(2-N,N-Dimethylaminoethyl)-2-fluorobenzo[d]isothiazolo[3,2-a]indol-S,S-dioxide (7)]	6.57
CCOc1ccc2c(c1)C(CC(C)N(C)C)=C1c3ccccc3S(=O)(=O)C12 (stereo unspecified) [2-Ethoxy-10-[(2-N,N-dimethylamino-2-methyl)ethyl]benzo[d]isothiazolo[3,2-a]indol-S,S-dioxide (17)]	7.95
CC(CC1=C2c3ccccc3S(=O)(=O)C2c2ccc(OCc3ccccc3)cc21)N(C)C (stereo unspecified) [2-Benzyloxy-10-[(2-N,N-dimethylamino-2-methyl)ethyl]benzo[d]isothiazolo[3,2-a]indol-S,S-dioxide (18)]	7.00
CC(C)Oc1ccc2c(c1)C(CC(C)N(C)C)=C1c3ccccc3S(=O)(=O)C12 (stereo unspecified) [2-Isopropoxy-10-[(2-N,N-dimethylamino-2-methyl)ethyl]benzo[d] isothiazolo[3,2-a]indol-S,S-dioxide (19)]	6.62
CC(CC1=C2c3ccccc3S(=O)(=O)C2c2ccc(Br)cc21)N(C)C (stereo unspecified) [2-Bromo-10-[(2-N,N-dimethylamino-2-methyl)ethyl]benzo[d]isothiazolo[3,2-a]indol-S,S-dioxide (13)]	7.27
COc1ccc2c(c1)C(CC(C)N(C)C)=C1c3ccccc3S(=O)(=O)C12 (stereo unspecified) [2-Methoxy-10-[(2-N,N-dimethylamino-2-methyl)ethyl)]benzo[d]isothiazolo[3,2-a]indol-S,S-dioxide (15)]	7.94
CCC(CC1=C2c3ccccc3S(=O)(=O)C2c2ccc(OC)cc21)N(C)C (stereo unspecified) [2-Methoxy-10-[(2-N,N-dimethylamino-2-ethyl)ethyl]benzo[d]isothiazolo[3,2-a]indol-S,S-dioxide (16)]	7.55
CN(C)CCC1=C2c3ccccc3S(=O)(=O)C2c2ccccc21 (stereo unspecified) [10-(2-N,N-Dimethylaminoethyl)benzo[d]isothiazolo[3,2-a]indol-S,S-dioxide (6)]	6.61
COc1ccc2c(c1)C(CCN(C)C)=C1c3ccccc3S(=O)(=O)C12 (stereo unspecified) [2-Methoxy-10-(2-N,N-dimethylaminoethyl)benzo[d]isothiazolo[3,2-a]indol-S,S-dioxide (14)]	7.02
